# Measurements from paper PMC11247487, “Discovery of Dual MER/AXL Kinase Inhibitors as Bifunctional Small Molecules for Inhibiting Tumor Growth and Enhancing Tumor Immune Microenvironment” (Journal of Medicinal Chemistry, 2024).
# “And” between values parts separate entries of the source, which are not always exact repeats. Identical values can stand only once. “Also recorded” adds a separate entry of the source.
# Assays:
# [1] = system: Ba/F3-MER cells; assay: Cell viability assay (MTS); type: cell-based; settings: 72 h
# [2] = In vivo pharmacokinetics study; settings: mice
# Experimental: The animal studies were performed according to NHRI institutional animal care and committee-approved procedures. Male ICR mice (25–35 g) were obtained from BioLASCO (Taiwan Co., Ltd., Ilan, Taiwan). […] All samples were analyzed for the parent drug by LC-MS/MS. Plasma concentration data were analyzed with a noncompartmental method.
# [3] = In vitro microsomal stability assay; type: in vitro ADME; settings: 1 μM, mouse liver microsomes, percent remaining at 30 min
# Experimental: All incubations were initiated with the addition of NADPH-generating system at 37 °C for 30 min. At 0 and the end of incubation, 100 μL of aliquots were taken from the incubation mixture and placed into centrifuge tubes containing 100 μL of ice-cold acetonitrile to terminate the metabolic reaction. The samples were vortexed and centrifuged, and then, the supernatant injected onto LC/MS. Percent of remaining of each compound was calculated by comparing peak areas at 30 min to that at the initiation of incubation.
# [4] = system: MC38 murine colon tumor; assay: MC38 syngeneic tumor model; type: in vivo, mice; settings: MC38 tumor-bearing mice, 25-50 mg/kg orally, 3 weeks
# [5] = system: immune cells in tumor and spleen of MC38 tumor-bearing mice; assay: Immunophenotyping by flow cytometry; type: in vivo; settings: 50 mg/kg QD, FOTO, 2 weeks
# Experimental: Tumor and spleen tissues from the control and treated animals were harvested 2 h after the last dose (day 11). […] tissues were carefully removed from the tumors followed by digestion with 0.1% collagenase III in DMEM medium for 30 min at 37 °C with agitation every 10 min. The digestion was terminated by adding 10% FBS containing PBS. The single-cell suspension was filtered through a 40 μm filter after red blood cell lysis. Aliquots of the cell suspension were preincubated with the mouse Fc receptor blocker for 10 min before staining with appropriate antimouse antibody conjugate for Cd45, Cd3, Cd4, Cd8, Cd11b, Cd86, F4/80, AXL, and MER (all antibody conjugates from BioLegend) at 4 °C for 30 min followed by two washes in 1% BSA containing buffer and analyzed by flow cytometry to quantify the accumulation of infiltrating immune cells into the tumor. For analysis of Cd206, the cells were fixed using the Cyto X/Cytoperm kit (BD Biosciences) after surface marker staining and then stained with antimouse Cd206 antibody.
# [6] = mouse, in vivo
# [7] = target: DDR1 (Homo sapiens, UniProt Q08345); assay: HotSpot kinase assay; settings: read-out: % Enzyme Activity
# [8] = target: DDR2 (Homo sapiens, UniProt Q16832); assay: HotSpot kinase assay; settings: read-out: % Enzyme Activity
# [9] = target: FLT3 (Homo sapiens, UniProt P36888); assay: HotSpot kinase assay; settings: read-out: % Enzyme Activity
# [10] = target: KIT (Homo sapiens, UniProt P10721); assay: HotSpot kinase assay; settings: read-out: % Enzyme Activity
# [11] = target: IRR (Homo sapiens, UniProt P14616); assay: HotSpot kinase assay; settings: read-out: % Enzyme Activity
# [12] = target: ROS1 (Homo sapiens, UniProt P08922); assay: HotSpot kinase assay; settings: read-out: % Enzyme Activity
# [13] = target: TRKA (Homo sapiens, UniProt P04629); assay: HotSpot kinase assay; settings: read-out: % Enzyme Activity
# [14] = target: TRKB (Homo sapiens, UniProt Q16620); assay: HotSpot kinase assay; settings: read-out: % Enzyme Activity
# [15] = target: TRKC (Homo sapiens, UniProt Q16288); assay: HotSpot kinase assay; settings: read-out: % Enzyme Activity
# [16] = 14-day repeated dose toxicity study; settings: ICR mice
# [17] = system: MER phosphorylation in G361 cells; assay: Western blotting of MER phosphorylation; settings: 48 h treatment
# [18] = system: AXL phosphorylation in H1299 cells; assay: Western blotting of AXL phosphorylation; settings: 1 h treatment
# [19] = target: T1, MER (Homo sapiens, UniProt Q12866); settings: cited from earlier work
# T1 construct: A purified kinase (MER or AXL) was incubated with a compound or DMSO
# T1 sequence (Q12866 21-999): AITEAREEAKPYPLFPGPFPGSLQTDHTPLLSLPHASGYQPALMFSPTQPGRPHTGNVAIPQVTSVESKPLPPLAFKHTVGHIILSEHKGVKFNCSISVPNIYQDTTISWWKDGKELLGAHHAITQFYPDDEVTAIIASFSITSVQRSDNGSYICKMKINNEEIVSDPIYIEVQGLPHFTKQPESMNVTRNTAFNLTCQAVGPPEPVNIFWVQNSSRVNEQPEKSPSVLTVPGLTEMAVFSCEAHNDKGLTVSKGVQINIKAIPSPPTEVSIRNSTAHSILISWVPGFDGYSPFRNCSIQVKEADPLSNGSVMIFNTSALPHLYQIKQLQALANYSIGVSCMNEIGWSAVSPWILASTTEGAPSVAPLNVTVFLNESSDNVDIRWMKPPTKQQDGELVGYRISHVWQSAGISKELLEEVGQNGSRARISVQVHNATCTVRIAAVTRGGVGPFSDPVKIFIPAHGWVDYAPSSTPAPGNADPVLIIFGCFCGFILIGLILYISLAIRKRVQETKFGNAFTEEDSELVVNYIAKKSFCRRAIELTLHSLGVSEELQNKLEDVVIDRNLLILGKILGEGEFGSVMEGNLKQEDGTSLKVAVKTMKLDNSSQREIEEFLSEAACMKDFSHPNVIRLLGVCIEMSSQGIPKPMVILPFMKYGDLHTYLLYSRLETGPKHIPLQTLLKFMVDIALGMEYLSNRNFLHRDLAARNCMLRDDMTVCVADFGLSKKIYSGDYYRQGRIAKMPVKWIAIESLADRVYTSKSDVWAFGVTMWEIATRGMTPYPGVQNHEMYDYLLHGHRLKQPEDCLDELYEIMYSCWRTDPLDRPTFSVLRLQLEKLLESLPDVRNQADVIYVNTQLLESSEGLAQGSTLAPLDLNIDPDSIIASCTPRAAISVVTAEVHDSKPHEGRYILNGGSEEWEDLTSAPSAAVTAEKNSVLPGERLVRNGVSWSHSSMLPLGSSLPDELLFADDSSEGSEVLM
# [20] = system: FLT3; design: method as in PMID 25068800, PMID 27649555; settings: cited from earlier work
# [21] = male, ICR, mouse, plasma, iv 2 mg/kg, po 10 mg/kg
# Sequence of DDR1 (Q08345 19-913): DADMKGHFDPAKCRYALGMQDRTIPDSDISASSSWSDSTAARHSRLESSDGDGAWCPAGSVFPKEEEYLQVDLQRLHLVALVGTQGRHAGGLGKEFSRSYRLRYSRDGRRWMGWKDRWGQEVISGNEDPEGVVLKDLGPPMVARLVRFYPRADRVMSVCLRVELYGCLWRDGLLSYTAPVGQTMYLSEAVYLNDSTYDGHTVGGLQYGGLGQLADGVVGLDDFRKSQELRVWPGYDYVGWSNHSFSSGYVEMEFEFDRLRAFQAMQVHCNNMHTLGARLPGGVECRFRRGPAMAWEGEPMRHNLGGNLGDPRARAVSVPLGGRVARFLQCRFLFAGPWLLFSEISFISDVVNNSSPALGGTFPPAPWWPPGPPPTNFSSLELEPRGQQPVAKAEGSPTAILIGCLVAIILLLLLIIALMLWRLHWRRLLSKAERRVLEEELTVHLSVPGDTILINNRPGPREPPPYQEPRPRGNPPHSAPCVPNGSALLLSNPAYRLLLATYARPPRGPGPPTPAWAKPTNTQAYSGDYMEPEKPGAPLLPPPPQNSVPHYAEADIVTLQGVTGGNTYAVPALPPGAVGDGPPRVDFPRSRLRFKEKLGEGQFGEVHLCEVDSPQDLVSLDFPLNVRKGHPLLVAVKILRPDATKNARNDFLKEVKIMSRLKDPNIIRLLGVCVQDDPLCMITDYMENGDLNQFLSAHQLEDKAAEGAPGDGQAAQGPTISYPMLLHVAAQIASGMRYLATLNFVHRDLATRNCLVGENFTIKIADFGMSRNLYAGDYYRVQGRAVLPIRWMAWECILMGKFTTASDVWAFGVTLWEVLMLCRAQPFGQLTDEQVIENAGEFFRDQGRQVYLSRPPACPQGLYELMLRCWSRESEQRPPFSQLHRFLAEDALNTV
# Sequence of FLT3 (P36888 27-993): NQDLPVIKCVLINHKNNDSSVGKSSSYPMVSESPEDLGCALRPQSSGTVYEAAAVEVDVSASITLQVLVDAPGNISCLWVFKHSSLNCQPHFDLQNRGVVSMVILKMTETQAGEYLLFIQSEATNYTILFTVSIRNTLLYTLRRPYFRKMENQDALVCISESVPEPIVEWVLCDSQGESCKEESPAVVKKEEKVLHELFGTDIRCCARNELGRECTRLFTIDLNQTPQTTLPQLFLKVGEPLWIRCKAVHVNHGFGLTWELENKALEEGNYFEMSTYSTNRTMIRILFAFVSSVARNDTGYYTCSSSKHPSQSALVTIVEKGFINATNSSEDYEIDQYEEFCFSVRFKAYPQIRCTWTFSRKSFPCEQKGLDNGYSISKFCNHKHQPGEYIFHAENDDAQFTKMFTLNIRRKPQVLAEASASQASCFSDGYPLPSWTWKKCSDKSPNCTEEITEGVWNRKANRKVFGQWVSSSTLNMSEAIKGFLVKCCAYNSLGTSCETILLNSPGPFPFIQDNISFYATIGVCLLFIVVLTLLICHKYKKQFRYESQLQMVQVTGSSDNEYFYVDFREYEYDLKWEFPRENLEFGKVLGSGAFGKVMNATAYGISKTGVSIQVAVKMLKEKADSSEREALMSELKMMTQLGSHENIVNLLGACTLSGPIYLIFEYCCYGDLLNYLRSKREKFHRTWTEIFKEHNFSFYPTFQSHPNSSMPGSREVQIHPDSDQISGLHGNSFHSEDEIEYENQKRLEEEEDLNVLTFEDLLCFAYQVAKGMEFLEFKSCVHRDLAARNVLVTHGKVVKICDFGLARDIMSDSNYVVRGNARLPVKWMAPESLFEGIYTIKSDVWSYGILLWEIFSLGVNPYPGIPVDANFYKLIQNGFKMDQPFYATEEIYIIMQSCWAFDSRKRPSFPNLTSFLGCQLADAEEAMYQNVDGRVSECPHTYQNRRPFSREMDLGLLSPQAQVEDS
# Sequence of IRR (P14616 27-1297): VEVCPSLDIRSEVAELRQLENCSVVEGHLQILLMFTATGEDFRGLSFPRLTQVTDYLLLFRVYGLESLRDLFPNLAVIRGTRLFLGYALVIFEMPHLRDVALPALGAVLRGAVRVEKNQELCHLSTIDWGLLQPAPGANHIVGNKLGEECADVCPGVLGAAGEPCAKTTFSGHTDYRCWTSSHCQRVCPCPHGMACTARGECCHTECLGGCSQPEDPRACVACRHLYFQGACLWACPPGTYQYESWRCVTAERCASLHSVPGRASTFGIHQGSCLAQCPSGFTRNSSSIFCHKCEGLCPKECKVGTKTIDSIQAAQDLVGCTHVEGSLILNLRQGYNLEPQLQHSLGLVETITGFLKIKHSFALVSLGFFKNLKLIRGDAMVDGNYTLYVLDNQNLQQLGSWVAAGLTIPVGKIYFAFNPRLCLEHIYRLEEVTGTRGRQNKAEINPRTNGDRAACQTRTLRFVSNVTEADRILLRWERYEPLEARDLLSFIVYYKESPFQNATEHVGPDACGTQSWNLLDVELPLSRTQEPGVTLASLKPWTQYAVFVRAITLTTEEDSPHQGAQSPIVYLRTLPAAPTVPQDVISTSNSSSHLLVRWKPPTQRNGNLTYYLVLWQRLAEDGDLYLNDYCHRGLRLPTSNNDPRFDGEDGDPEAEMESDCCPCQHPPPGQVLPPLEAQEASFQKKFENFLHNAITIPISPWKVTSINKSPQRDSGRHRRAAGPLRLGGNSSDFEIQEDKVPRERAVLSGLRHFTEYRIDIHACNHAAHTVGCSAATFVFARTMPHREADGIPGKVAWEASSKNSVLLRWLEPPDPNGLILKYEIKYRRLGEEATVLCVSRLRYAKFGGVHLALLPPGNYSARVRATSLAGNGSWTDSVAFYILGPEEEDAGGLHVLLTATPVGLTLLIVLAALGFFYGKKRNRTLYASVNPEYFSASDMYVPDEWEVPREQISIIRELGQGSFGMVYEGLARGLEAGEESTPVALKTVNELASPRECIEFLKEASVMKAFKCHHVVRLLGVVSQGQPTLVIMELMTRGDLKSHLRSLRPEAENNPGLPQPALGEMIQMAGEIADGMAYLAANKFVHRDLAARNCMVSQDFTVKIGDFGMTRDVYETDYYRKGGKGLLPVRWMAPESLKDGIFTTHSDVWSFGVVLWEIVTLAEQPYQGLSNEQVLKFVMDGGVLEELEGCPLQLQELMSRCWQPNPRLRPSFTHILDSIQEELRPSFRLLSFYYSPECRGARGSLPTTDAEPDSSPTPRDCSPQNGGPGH
# Sequence of TRKC (Q16288 32-839): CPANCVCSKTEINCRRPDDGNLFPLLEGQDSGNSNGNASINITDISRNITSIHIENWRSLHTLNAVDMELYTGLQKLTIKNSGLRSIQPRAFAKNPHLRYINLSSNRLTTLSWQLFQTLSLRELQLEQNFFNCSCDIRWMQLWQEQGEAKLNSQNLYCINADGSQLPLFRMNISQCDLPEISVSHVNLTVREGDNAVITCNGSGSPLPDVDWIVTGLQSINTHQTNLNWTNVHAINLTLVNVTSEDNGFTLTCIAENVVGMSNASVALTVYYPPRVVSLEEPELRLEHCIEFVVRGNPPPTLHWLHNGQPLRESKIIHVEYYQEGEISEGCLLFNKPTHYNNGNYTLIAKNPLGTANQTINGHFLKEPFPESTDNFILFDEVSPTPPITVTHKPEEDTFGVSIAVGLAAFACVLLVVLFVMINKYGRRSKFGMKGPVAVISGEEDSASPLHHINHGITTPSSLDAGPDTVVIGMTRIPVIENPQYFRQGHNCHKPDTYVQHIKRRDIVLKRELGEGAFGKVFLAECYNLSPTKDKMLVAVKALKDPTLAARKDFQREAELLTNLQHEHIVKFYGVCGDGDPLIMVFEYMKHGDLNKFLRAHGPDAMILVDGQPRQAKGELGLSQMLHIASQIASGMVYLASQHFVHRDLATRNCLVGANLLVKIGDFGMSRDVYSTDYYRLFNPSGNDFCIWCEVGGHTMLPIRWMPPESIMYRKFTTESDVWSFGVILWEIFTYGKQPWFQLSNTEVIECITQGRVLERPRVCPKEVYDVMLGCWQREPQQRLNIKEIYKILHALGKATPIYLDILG
# Sequence of KIT (P10721 26-976): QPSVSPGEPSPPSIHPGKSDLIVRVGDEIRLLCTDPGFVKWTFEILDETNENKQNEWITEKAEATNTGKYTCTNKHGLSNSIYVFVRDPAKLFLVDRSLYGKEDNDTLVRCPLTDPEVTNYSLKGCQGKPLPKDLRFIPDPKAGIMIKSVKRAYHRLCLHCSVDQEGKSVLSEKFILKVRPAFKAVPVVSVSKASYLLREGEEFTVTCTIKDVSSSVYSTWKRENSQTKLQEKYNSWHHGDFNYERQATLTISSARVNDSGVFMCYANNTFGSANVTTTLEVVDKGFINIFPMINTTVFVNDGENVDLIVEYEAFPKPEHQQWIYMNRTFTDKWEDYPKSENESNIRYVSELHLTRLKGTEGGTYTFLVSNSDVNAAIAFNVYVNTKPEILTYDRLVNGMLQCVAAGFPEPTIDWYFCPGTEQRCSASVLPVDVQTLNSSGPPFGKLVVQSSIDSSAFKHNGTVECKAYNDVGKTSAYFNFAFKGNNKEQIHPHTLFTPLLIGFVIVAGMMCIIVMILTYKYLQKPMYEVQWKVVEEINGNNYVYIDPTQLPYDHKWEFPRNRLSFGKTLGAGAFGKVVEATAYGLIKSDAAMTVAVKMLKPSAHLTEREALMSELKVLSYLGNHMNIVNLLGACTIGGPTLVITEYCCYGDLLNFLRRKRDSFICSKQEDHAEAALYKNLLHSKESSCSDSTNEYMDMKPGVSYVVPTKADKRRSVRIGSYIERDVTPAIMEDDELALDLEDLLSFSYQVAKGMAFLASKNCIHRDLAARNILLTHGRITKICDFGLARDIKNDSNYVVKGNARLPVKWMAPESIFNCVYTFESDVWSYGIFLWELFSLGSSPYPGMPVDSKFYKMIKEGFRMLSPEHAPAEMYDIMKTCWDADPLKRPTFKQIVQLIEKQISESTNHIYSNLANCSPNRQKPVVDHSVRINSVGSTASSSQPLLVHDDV
smiles,measurement,setting,value
"CN(C)Cc1cccc(-c2c(-c3cnn(C)c3)oc3ncnc(Oc4ccc(NC(=O)c5cccn(-c6ccc(F)cc6)c5=O)cc4)c23)c1 [Compound 33, N-{4-[(5-{3-[(Dimethylamino)methyl]phenyl}-6-(1-methyl-1H-pyrazol-4-yl)furo[2,3-d]pyrimidin-4-yl)oxy]phenyl}-1-(4-fluorophenyl)-2-oxo-1,2-dihydropyridine-3-carboxamide]",IC50,[1],5 nM and 4.8 nM
same,bioavailability,[2]; [21],> 20%
same,bioavailability at 24 h,[2]; [21],54.6%
same,clearance,"[2]; male, ICR, mouse, plasma, iv 2 mg/kg, read-out: iv CL",12.6 mL/min/kg
same,half-life,"[2]; male, ICR, mouse, plasma, iv 2 mg/kg, read-out: iv T1/2 (converted)",4.5 h
same,Vd,"[2]; male, ICR, mouse, plasma, iv 2 mg/kg, read-out: iv Vss",5.2 L/kg
same,Tmax at 24 h,"[2]; male, ICR, mouse, plasma, po 10 mg/kg",5.3 h
same,half-life at 24 h,"[2]; male, ICR, mouse, plasma, po 10 mg/kg, read-out: po T1/2 (converted)",5.2 h
same,iv DNAUC(0–inf),"[2]; iv 2 mg/kg, dose-normalized","1,573.0 ng × hr/mL"
same,po DNAUC(0–inf),"[2]; po 10 mg/kg, dose-normalized",858.8 ng·h/mL
same,po DNCmax,"[2]; po 10 mg/kg, dose-normalized",95.0 ng/mL
same,Microsomal stability @ 30 min,[3],79%
same,body weight during treatment,[4],well-tolerated without significant body weight loss
same,increase in intratumoral M1-like macrophages,[5],2 fold
same,increase in percentage of Cd3^+ pan-T cells in spleen,[5],2 fold
same,increase in percentage of Cd4^+ helper T cells in spleen,[5],2 fold
same,increase in percentage of Cd8^+ cytotoxic T cells in spleen,[5],6 fold
same,"toxicity, 14-day repeated dose",[6],no significant toxicity at any dose level
same,remaining activity at 1 µM,[7],9.39%
same,remaining activity at 1 µM,[8],4.45%
same,remaining activity at 1 µM,[9],-0.03%
same,remaining activity at 1 µM,[10],1.05%
same,remaining activity at 1 µM,[11],1.79%
same,remaining activity at 1 µM,[12],2.88%
same,remaining activity at 1 µM,[13],3.35%
same,remaining activity at 1 µM,[14],6.07%
same,remaining activity at 1 µM,[15],2.26%
same,CBC,[16],No significant
same,body weight,[16],No effect on body
same,kidney serum biomarker CRE,[16],Mild effect on CRE; also recorded: mild decline in kidney serum biomarker CRE at 30 and 100 mpk
same,organ weight,[16],No significant
same,MER phosphorylation induced by MAB8912,[17],effectively blocked MER phosphorylation
same,Gas6-mediated AXL phosphorylation,[18],effectively blocked
"CCC[C@@H](C)Nc1ncc2c(C3CCN(C(=O)c4cc(C)nc(C)c4)CC3)cn([C@H]3CC[C@H](O)CC3)c2n1 [Compound 2, UNC5293]",IC50,[19],0.9 nM
